{"source": "patent US20250161338A1", "about": "“Compounds for Anti-aging Intervention” (AGENCY FOR SCIENCE, TECHNOLOGY AND RESEARCH, priority 2022, published 2025)", "key": {"[1]": {"test_system": "prototrophic yeast strain (CEN.PK113-7D)", "assay": "Yeast outgrowth in YPD liquid medium (CLS of aged cells)", "type": "cell-based, Saccharomyces cerevisiae", "outline": "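Cultures aged at 30 °C in SD medium with double-diluted rapamycin (0–10 nM) or sugars/polyols (0–8 mM). On day 14, 3 µL of culture was transferred into 200 µL YPD and outgrowth read as OD600. Survival expressed relative to day 1 outgrowth (100%).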"}, "IMR90 cells": {"test_system": "IMR90 cells", "assay": "CLS in human cells, propidium iodide fluorescence-based method (IMR90)", "type": "cell-based", "conditions": "sixth day after seeding", "procedure": "Human embryonic kidney 293 (HEK293) cells (ATCC, Manassas, Virginia, United States of America), lung epithelial (A549) cells (ATCC, Manassas, Virginia, United States of America) and fibroblast (IMR90) cells (ATCC, Manassas, Virginia, United States of America) were cultured in the standard D10 medium, consisting of high-glucose DMEM (HyClone, Cytiva, Marlborough, Massachusetts, USA) supplemented with 10% Fetal Bovine Serum (FBS) (Gibco™, ThermoFisher Scientific, Waltham, Massachusetts, USA) and 1% Penicillin Streptomycin Solution (Gibco™, ThermoFisher Scientific, Waltham, Massachusetts, USA). All cells were cultured in a humidified incubator with 5% CO2 at 37° C.\nThe stock solution of rapamycin, hemin, 5-fluorouracil, atorvastatin, and methotrexate was prepared in DMSO, followed by serial dilution to form various concentrations used in the experiment. The final DMSO concentration was kept at 0.05% in all experiments. The stock solution of 2,5-anhydro-D-mannitol was prepared in D10 medium. The chemical library used in screening were tested at 1 μM concentrations. Controls used were the same as the solvent applied, DMSO or water.\nThe assay was performed by preparing the cells with PI (2 μg/mL or 5 μg/mL) in a D10 medium. […] At different age time points, reading was taken with a Synergy MX microplate reader (BioTek, Winooski, Vermont, United States) at 535 nm excitation and 617 nm emission."}, "[2]": {"test_system": "wild-type Saccharomyces cerevisiae CEN.PK113-7D yeast strain", "assay": "Yeast cell growth (OD600) in SD medium", "type": "cell-based", "conditions": "0 to 8 mM; 24, 48 and 72 hours", "procedure": "Yeast strain was recovered from frozen glycerol stock at 30° C. on YPD agar medium. Yeast was left to propagate in SD medium overnight at 30° C. with shaking at 220 revolutions per minute (rpm). Cells propagated overnight were diluted to a starting optical density at 600 nm (OD600) of approximately 0.2 in fresh SD medium to begin the chronological lifespan (CLS) experiments.\nCLS experiments were performed in 96-well plates with 200 μL yeast culture. Cellular inoculums were transferred into 96-well plates containing serially double-diluted concentrations (0 to 10 nM) of rapamycin. Cellular inoculum was transferred into 96-well plates containing serially double-diluted concentrations (0 to 8 mM) of 2,5-anhydro-D-mannitol, D-fructose, D-mannitol, D-maltose, and D-sorbitol in SD medium. Cells were incubated at 30° C., and the growth was measured at different time points. The growth time point 72 hours was considered as Day 1 for the CLS assay. Cell survival was quantified at various age time points by three different approaches: (i) PI fluorescence-based method, (ii) outgrowth in YPD liquid medium, and (iii) spotting assay (FIG. 1).\nFirstly, the effect of 2,5-AM on cell growth was determined. Yeast cells were incubated with varying concentrations of 2,5-AM in the SD medium. Cell growth was measured at different time points (24 hours, 48 hours, and 72 hours). […] Then, the survival of chronologically aged cells supplemented with different concentrations of 2,5-AM was measured using the PI fluorescence method. At each chronological age point, a 3 μL culture was transferred to a second 96-well plate containing 200 μL YPD medium. The 72-hour growth culture was considered Day 1 for the CLS analysis. The viability fraction was calculated, and a survival graph was plotted for different chronological age time points (FIG. 5). […] The survival of aged cells supplemented with 2,5-AM (4 mM and 8 mM) on Day 4 was approximately 80%. However, the survival of aged cells without 2,5-AM was approximately 50%. On Day 7, survival of 2,5-AM supplemented aged cells was approximately 75%. However, the survival of aged cells without 2,5-AM was reduced to less than 20%.\nFirstly, the effect of fructose, mannitol, maltose, and sorbitol on cell growth was tested. Yeast cells were incubated with various concentrations of fructose, mannitol, maltose, and sorbitol similar to 2,5-AM in the SD medium. […] Next, the survival of chronologically aged cells on day 1, day 7, day 14, and day 21 was measured. […] Aged cells supplemented with 2,5-AM (8 mM) survived (approximately 65%) on Day 21. However, the survival of aged cells without 2,5-AM supplementation was less than 10%."}}, "note": "Entries after “also recorded” stand apart in the source; their conditions may differ.", "data": [{"smiles": "OC[C@H]1O[C@H](CO)[C@@H](O)[C@@H]1O", "note": "[2,5-AM, 2,5-anhydro-D-mannitol]", "values": [{"measurement": "antiaging activity in outgrowth assays", "setting": "[1]; Day 1, 4, 7 and 10, FIGS. 6 to 8", "result": "verified by outgrowth assays"}, {"measurement": "Outgrowth", "setting": "[1]; concentration tested 300 μg/mL, OD600 nm after 24 h in YPD, age point day 14", "result": 1.3}, {"measurement": "more live cells compared to the untreated control", "setting": "IMR90 cells; 2.5 mM", "result": 32.33, "unit": "%"}, {"measurement": "more live cells compared to the untreated control", "setting": "IMR90 cells; 5 mM", "result": 48.08, "unit": "%"}, {"measurement": "cell growth", "setting": "[2]", "result": "reached the same saturation level after 24 hours; also recorded: did not affect cell growth"}]}]}
